Data: patent publication US5223421A, “Identification of methionine Nα-acetyltransferase” (The General Hospital Corporation, priority 1990, dated 1993)
“Also recorded” adds a separate entry of the source.

Legend:
yeast N^α AT = target: T1, yeast N^α AT (Saccharomyces cerevisiae, UniProt P07347+P12945); experiment: Effect of ions and reagents on yeast N^α AT (comparison in the discussion); format: biochemical
T1 sequence (P12945 2-854 limits assumed): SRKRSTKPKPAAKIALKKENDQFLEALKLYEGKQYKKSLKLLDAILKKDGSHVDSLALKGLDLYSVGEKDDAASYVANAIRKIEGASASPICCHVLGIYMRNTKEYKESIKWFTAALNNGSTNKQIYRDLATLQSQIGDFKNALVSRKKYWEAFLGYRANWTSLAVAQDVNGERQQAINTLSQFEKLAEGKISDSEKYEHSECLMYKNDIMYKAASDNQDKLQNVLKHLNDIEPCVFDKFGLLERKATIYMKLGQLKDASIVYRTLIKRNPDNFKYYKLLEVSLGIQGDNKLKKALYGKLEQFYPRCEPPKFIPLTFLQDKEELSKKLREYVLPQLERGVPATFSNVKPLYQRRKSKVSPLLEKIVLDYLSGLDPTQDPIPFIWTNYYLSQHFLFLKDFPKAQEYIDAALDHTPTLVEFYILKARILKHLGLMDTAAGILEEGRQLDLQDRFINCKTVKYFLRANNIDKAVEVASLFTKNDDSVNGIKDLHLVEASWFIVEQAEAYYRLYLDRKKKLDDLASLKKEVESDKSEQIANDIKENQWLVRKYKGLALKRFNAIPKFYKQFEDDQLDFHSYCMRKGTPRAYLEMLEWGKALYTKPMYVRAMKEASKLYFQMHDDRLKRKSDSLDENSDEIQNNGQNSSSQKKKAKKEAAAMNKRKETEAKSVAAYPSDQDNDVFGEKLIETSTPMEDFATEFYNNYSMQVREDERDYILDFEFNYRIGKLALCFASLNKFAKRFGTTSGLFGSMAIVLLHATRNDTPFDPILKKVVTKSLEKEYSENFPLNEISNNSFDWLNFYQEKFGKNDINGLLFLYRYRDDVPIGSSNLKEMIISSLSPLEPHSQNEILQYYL
T1 sequence (P07347 1-238): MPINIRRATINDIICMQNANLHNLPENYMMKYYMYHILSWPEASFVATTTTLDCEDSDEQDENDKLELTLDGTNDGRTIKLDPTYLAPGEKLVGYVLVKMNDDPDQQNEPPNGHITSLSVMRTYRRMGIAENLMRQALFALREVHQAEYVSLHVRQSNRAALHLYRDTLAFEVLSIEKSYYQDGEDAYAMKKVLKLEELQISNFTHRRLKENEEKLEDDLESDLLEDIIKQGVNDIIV

[1] = tested on: methionine N^α -acetyltransferase from S. cerevisiae; experiment: Effect of protein modification reagents on enzyme activity; format: biochemical, Saccharomyces cerevisiae; details: for Enzyme Activity (%): 30° C. 15 min, then dialyzed, substrate PAI (N=3)
Description: (§1) N^α -acetyltransferase activity was determined as previously described [Lee et al., J. Biol. Chem. 263:14948-14955 (1988)]. Aliquots of the lysate or chromatographic fractions were added to 1.5 ml Eppendorf tubes containing a reaction mixture of 50 mM HEPES, pH 7.4, 150 mM KCl, 1 mM DTT, 25 μM [^3 H] acetyl coenzyme A (0.5 μCi) and 50 μM synthetic peptide with an adjusted final volume of 100 μl. The assay mixture was incubated at 30° C. for 30 min. The reaction was stopped by adding 17 μl of 0.5M acetic acid and chilled in an ice bath. The reaction samples were filtered through SP membrane discs (Cuno) (previously pre-swollen in 0.5M acetic acid), and then washed three times with 1 ml of 0.5M acetic acid on a Millipore 1225 sampling manifold. The partially dried membranes were placed in scintillation cocktail and counted with a Beckman LS 3801 scintillation counter. One unit of activity was defined as the amount of enzyme able to transfer 1 pmol of [^3 H] acetyl group from [^3 H] acetyl coenzyme A to synthetic peptide per min under standard enzyme assay conditions defined above.
In order to determine the possible catalytic role for different types of amino acid residues in the enzyme, various chemical modifications were carried out (Table 10). Yeast methionine acetyltransferase was incubated with each reagent at 30° C. for 15 min, dialyzed against 50 mM HEPES, pH 7.4, 150 mM, 1 mM DTT at 4° C. for 3 to 4 hr. The enzyme activity was determined under standard assay conditions using PAI (N=3), assayed as described above.

[2] = target: T2, yeast methionine acetyltransferase (M-N^α AT) (Saccharomyces cerevisiae, UniProt Q06504); experiment: Relative activity of yeast methionine acetyltransferase for N^α -acetylation of synthetic peptides (PAI analogues); format: biochemical; set-up: tested at 50 µM; details: Table 5; mean ± SD (N=3-5); normalized to yeast proteinase A inhibitor 3
T2 construct: a crude yeast homogenate from the aaa1 mutant strain; endogenous in cells; host or cells: Saccharomyces cerevisiae strain T3A-a (aaa1), crude lysate
T2 sequence (Q06504 1-195): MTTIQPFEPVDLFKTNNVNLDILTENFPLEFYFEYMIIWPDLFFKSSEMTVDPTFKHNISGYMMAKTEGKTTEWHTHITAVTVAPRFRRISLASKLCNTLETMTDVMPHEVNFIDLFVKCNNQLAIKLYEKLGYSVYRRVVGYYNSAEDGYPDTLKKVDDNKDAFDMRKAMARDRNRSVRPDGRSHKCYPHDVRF
T2 sequence (Q12387 2-796 partner limits assumed): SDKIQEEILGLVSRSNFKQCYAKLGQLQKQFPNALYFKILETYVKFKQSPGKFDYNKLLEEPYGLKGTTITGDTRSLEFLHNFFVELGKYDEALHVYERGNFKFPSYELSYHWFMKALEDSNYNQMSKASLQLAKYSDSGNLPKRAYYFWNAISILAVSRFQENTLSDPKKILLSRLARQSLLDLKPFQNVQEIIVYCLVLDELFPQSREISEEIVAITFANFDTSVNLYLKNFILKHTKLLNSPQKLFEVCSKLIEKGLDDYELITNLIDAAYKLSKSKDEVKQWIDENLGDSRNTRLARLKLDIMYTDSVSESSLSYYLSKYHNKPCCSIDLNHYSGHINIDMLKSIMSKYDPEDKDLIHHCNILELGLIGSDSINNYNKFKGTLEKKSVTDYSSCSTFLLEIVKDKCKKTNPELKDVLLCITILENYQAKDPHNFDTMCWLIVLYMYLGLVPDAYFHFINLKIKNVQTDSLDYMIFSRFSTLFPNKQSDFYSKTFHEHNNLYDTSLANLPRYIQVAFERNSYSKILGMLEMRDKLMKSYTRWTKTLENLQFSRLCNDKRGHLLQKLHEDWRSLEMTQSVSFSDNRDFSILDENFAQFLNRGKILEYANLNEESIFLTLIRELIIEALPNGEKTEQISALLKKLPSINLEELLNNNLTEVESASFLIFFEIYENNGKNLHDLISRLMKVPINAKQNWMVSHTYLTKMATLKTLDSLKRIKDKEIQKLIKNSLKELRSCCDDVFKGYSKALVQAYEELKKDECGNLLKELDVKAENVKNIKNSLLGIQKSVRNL
Description: as §1
Proteinase A inhibitor 3 (PAI) (Tsunasawa et al., Methods Enzymol. 106:165-170 (1984); Wold, F., Trends Biochem Sci. 9:256-267 (1984); Driessen et al., CRC Crit. Rev. Biochem 18:281-325 (1985); Mullen et al., EMBO J. 8:2067-2075 (1989); Lee et al., J. Bacteriol. 171:5795-5802 (1989); Hershko et al., Proc. Natl. Acad. Sci. USA 81:7021-7025 (1984); Bachmair et al., Science 234:179-186 (1986); Arfin et al., Biochemistry 27:7979-7984 (1988); Persson et al., Eur. J. Biochem. 152:523-527 (1985); Huang al., Biochemistry 26:8242-8246 (1987); Lee et al., J. Biol. Chem. 263:14948-14955 (1988); Kamitani et al., J. Biol. Chem. 264:13188-13193 (1989)) is the only known yeast protein which is acetylated at its NH2 -terminal methionine residue (Biedermann et al., Carlsberg Res. Commun. 45:225-235 (1980)). […] The numbers in parentheses refer to the residue numbers, and the letters in parentheses refer to the amino acid sequence Abbreviations are as in FIG. 1. Data are reported as mean activity ±SD (N=3-5) and are normalized to the activity of the homogenate towards yeast proteinase A inhibitor 3. The sequence of this protein is:
Thus, by using PAI, its analogues and other peptides, the structural features of M-N^α AT substrates were studied. […] Only three of nineteen analogues were acetylated, although the efficiency of their acetylation varied from 9-55% (Asp>Glu>Gln). Although it was shown previously that iso-cytochrome c variant proteins (Met-Ile-Arg - - -, Met-Ile-Lys - - -, Met-Met-Asn - - -) can be N^α -acetylated in vivo (Tsunasawa et al., J. Biol. Chem. 260:5382-5391 (1985)), synthetic peptides mimicking the NH2 -terminal 24 amino acid residues of these iso-cytochrome c variants were not acetylated by the yeast M-N^αAT.

## OC(CS)C(O)CS (stereo not drawn) [DTT]
Yeast N^α AT
  effect of reagent on N^α AT activity: inability
[1]; concentration not given
  effect of reagent on M-N^α AT activity: did not affect the enzyme activity; also recorded: inability
[1]; reagent 10.0 mM
  Enzyme Activity (%): 95%

## CCN1C(=O)C=CC1=O [NEM, N-ethylmaleimide]
Yeast N^α AT
  effect of reagent on N^α AT activity: inability
[1]; 0.5 mM
  effect of reagent on M-N^α AT activity: partial inactivation
[1]; concentration not given
  effect of reagent on M-N^α AT activity: inability
[1]; reagent 0.5 mM
  Enzyme Activity (%): 77%
[1]; reagent 5.0 mM
  Enzyme Activity (%): 20%

## [Val2 ]PROTEINASE A INHIBITOR 3 (1-24) (Yeast): synthetic PAI analogue with substitution at penultimate position (Val) (MVTDQQKVSEIFQSSKEKLQGDAK; UniProt P01094 1-24, looked up, variant N2V)
[2]
  Activity (%): 0%

## NC(=O)CI [IAM, iodoacetamide]
Yeast N^α AT
  effect of reagent on N^α AT activity: inability
[1]; 1 mM
  effect of reagent on M-N^α AT activity: without effect
[1]; 10 mM
  effect of reagent on M-N^α AT activity: partial inactivation
[1]; concentration not given
  effect of reagent on M-N^α AT activity: inability
[1]; reagent 1.0 mM
  Enzyme Activity (%): 100%
[1]; reagent 10.0 mM
  Enzyme Activity (%): 86%

## [Trp2 ]PROTEINASE A INHIBITOR 3 (1-24) (Yeast): synthetic PAI analogue with substitution at penultimate position (Trp) (MWTDQQKVSEIFQSSKEKLQGDAK; UniProt P01094 1-24, looked up, variant N2W)
[2]
  Activity (%): 0%

## [Pro2 ]PROTEINASE A INHIBITOR 3 (1-24) (Yeast): synthetic PAI analogue with substitution at penultimate position (Pro) (MPTDQQKVSEIFQSSKEKLQGDAK; UniProt P01094 1-24, looked up, variant N2P)
[2]
  Activity (%): 0%

## [Asp2 ]PROTEINASE A INHIBITOR 3 (1-24) (Yeast): synthetic PAI analogue with substitution at penultimate position (Asp) (MDTDQQKVSEIFQSSKEKLQGDAK; UniProt P01094 1-24, looked up, variant N2D)
[2]
  Activity (%): 55 ± 5%

## [Ile2 ]PROTEINASE A INHIBITOR 3 (1-24) (Yeast): synthetic PAI analogue with substitution at penultimate position (Ile) (MITDQQKVSEIFQSSKEKLQGDAK; UniProt P01094 1-24, looked up, variant N2I)
[2]
  Activity (%): 0%

## [Gln2 ]PROTEINASE A INHIBITOR 3 (1-24) (Yeast): synthetic PAI analogue with substitution at penultimate position (Gln) (MQTDQQKVSEIFQSSKEKLQGDAK; UniProt P01094 1-24, looked up, variant N2Q)
[2]
  Activity (%): 9 ± 3%

## [Phe2 ]PROTEINASE A INHIBITOR 3 (1-24) (Yeast): synthetic PAI analogue with substitution at penultimate position (Phe) (MFTDQQKVSEIFQSSKEKLQGDAK; UniProt P01094 1-24, looked up, variant N2F)
[2]
  Activity (%): 0%

## [Met2 ]PROTEINASE A INHIBITOR 3 (1-24) (Yeast): synthetic PAI analogue with substitution at penultimate position (Met) (MMTDQQKVSEIFQSSKEKLQGDAK; UniProt P01094 1-24, looked up, variant N2M)
[2]
  Activity (%): 0%

## [His2 ]PROTEINASE A INHIBITOR 3 (1-24) (Yeast): synthetic PAI analogue with substitution at penultimate position (His) (MHTDQQKVSEIFQSSKEKLQGDAK; UniProt P01094 1-24, looked up, variant N2H)
[2]
  Activity (%): 0%

## [Gly2 ]PROTEINASE A INHIBITOR 3 (1-24) (Yeast): synthetic PAI analogue with substitution at penultimate position (Gly) (MGTDQQKVSEIFQSSKEKLQGDAK; UniProt P01094 1-24, looked up, variant N2G)
[2]
  Activity (%): 0%
